Test results: patent US6365590B1, “Compounds, compositions and methods for treating erectile dysfunction” (Saint Louis University, priority 1998, dated 2002)
Counter-ions that a name gives are not always drawn.

Key:
[1] = tested on: sperm; details: cited from earlier work
[2] = pH of a 10 mM aqueous solution of the compound; assay type: physicochemical; details: 22° C.
[3] = concentrations up to 20%; cited from earlier work

CCCCC[C@H](O)/C=C/[C@H]1[C@H](O)CC(=O)[C@@H]1CCCCCCC(=O)O [alprostadil]
effect on the viability of sperm [1]: no effect

CCCCCC(O)C=CC1C(O)CC(=O)C1CCCCCCC(=O)O.COc1cc2nc(N3CCN(C(=O)c4ccco4)CC3)nc(N)c2cc1OC [prazosin alprostadilate]
pH of a 10 mM aqueous solution [2]: 6.32-6.38

COc1ccc(Cc2nccc3cc(OC)c(OC)cc23)cc1OC [papaverine]
effectiveness as a topical agent in erectile dysfunction [3]: not sufficiently effective for clinical use

CCCCC[C@H](O)/C=C/[C@H]1[C@H](O)CC(=O)[C@@H]1CCCCCCC(=O)O.CCN(CC)CC(=O)Nc1c(C)cccc1C [lidocaine alprostadilate]
pH of a 10 mM aqueous solution [2]: 6.29-6.36

COc1cc2nc(N3CCN(C(=O)c4ccco4)CC3)nc(N)c2cc1OC [prazosin hydrochloride]
effect on the viability of sperm [1]: no effect
